According to patent US20200352912A1, “ANTIMICROBIAL COMPOSITIONS AND METHODS OF USING THE SAME” (The Board Of Supervisors Of Louisiana State University And …, priority 2018, published 2020):

How the values were obtained:
mouse primary myoblasts = conditions: cited from earlier work
S. aureus = experiment: generation of hydroxyl radicals (thiourea scavenger); type: cell-based, Staphylococcus aureus; conditions: 50 μg/ml, 150 mM thiourea
Method: (A) Effects of reactive oxygen species inhibitors. Growth of S. aureus was monitored for up to 6 h in medium alone or medium supplemented with 15 mM of Na-L-ascorbate, and/or 15 mM N-acetyl-L-cysteine, and/or 50 μg/ml L-161, 982. Data shown are representative of two independent experiments. (B) Effects of hydroxyl radical scavengers. Growth was monitored for 4 h in medium alone or medium supplemented with 50 μg/ml L-161, 982 or 1 mM H2O2 alone, plus 150 mM thiourea, or plus 500 μM 2,2′-dipyridyl.
Generation of hydroxyl radicals. Antibiotic induced hydroxyl radical production was measured as previously described (12). Overnight cultures of S. aureus were diluted 1:100 in TSB and grown for 3 h at 37° C. with shaking to mid-log phase. Cultures were diluted in TSB to OD600=0.05 and L-161, 982 was added at a final concentration of 50 µg/ml+/−H2O2 (1 mM; Sigma) or thiourea (150 mM; Sigma). Cultures were incubated at 37° C. with shaking and aliquots were removed at t(0) and at 1 h intervals duplicate, diluted 1:100 and optical density measured at 600 nm (OD600) or serially diluted and plated onto SDA and grown at 37° C. for 24 h for CFU enumeration.

FP = FP (Homo sapiens, UniProt P43088); conditions: cited from earlier work
S. aureus NRS383 = experiment: mouse MRSA peritonitis/sepsis model; type: in vivo, mice; conditions: for survival by day 2 post-inoculation: 10 mg/kg i.p.
Method: Mice were infected intraperitoneally with 0.2 ml of the indicated inoculum of S. aureus NRS383 in 3% hog gastric mucin/PBS. One group of mice/inoculum received either the vehicle or L-161, 982 at a dose of 10 mg/kg by i.p. injection as indicated in Materials and Methods. (A) Mortality was assessed using Kaplan Meier test (*P<0.05; **P<0.01; ***P<0.001; ns—not significant; n=15/group) compared to control groups. (B) Microbial burden in peritoneal lavage fluid and spleen was assessed between untreated (control) and treated (L-161, 982) groups 24 and 48 h post-inoculation (n=6 to 8/group). Values are plotted as the median CFU and compared using the Mann-Whitney U test (**P<0.01; ***P<0.001). Data shown are representative of three replicate experiments.
(§1) The mouse peritonitis/intra-abdominal model was performed as previously described (8). In brief, for MRSA peritonitis, mice were injected intraperitoneally (i.p.) with 4×10^6 CFU or 5×10^6 CFU or 2×10^7 CFU of S. aureus in 0.2 ml of PBS containing 3% hog gastric mucin type III (Sigma Aldrich). Mice injected i.p. with 0.2 ml of mucin/PBS served as a negative infection control. For the intra-abdominal infection with C. albicans and S. aureus, mice were injected i.p. with 7×10^6 CFU of C. albicans and 8×10^7 CFU of S. aureus (8.7×10^7 CFU total) in 0.2 ml of PBS. After inoculation, mice were observed over 10 days for signs of morbidity (hunched posture, inactivity, lethargy, and ruffled fur) and mortality. […] In the MRSA peritonitis experiments, mice were sacrificed at 24 or 48 h post-inoculation to assess microbial burden. Peritoneal cavities were lavaged by injection of 2 ml of sterile PBS followed by gentle massaging of the peritoneal cavity. Peritoneal lavage fluid then was removed using a pipette inserted into a small incision in the abdominal cavity. Spleens were removed, weighed, and mechanically homogenized prior to CFU analysis. Microbial burdens in the peritoneal lavage fluid and spleen were enumerated as described above.
(§2) Each inhibitor was prepared fresh as a concentrated stock (20-25 mg/ml) in DMSO and diluted to a working concentration of […] in sterile PBS (final DMSO concentration, 2.3%). A sham treatment containing only 2.3% DMSO in PBS was also prepared. For the MRSA peritonitis study, the EP4 receptor antagonist was administered 2 h after S. aureus inoculation and once daily thereafter until day 4 post inoculation. For the IAI co-infection study, COX inhibitor or vehicle control was administered 4 h prior to and 4 and 8 h after inoculation with C. albicans and S. aureus while the EP receptor antagonists were administered daily starting 1 day prior to and 5 days after infection. All other procedures were performed as described above. Control groups received the vehicle at the same dose interval.
L-161, 982 protects against mono- and poly-microbial infections with MRSA. We next evaluated the efficacy of L-161, 982 in vivo using an established mouse peritonitis/sepsis model of infection. Mice were inoculated with three varying lethal inocula of S. aureus and treated with L-161, 982 (10 mg/kg) intraperitoneally (i.p.) 2 h post-inoculation and once daily afterwards through day 4. Control group received the vehicle at the same dose interval.

[1] = system: C. albicans and S. aureus; experiment: mouse C. albicans-S. aureus polymicrobial intra-abdominal infection; type: in vivo, mice; conditions: 10 mg/kg
Method: Effect of inhibition of EP4 receptor signaling on survival. Mice received either vehicle or EP4 receptor antagonist at a dose of 10 mg/kg by i.p. injection as indicated in Materials and Methods. Mortality was assessed using Kaplan Meier test (***P<0.001; n=20/group) compared to control groups. Data shown are representative of three replicate experiments.
as §1, §2
In a final set of experiments, we evaluated the ability of L-161, 982 to reduce lethality in co-infected mice. Mice co-inoculated with the standard 7×106 C. albicans CFU and 8×107 S. aureus CFU (8.7×10^7 CFU total) were treated with L-161, 982 (10 mg/kg) 2 h post infection and once daily afterwards until day 5. […]

Chain of FP (P43088 whole entry): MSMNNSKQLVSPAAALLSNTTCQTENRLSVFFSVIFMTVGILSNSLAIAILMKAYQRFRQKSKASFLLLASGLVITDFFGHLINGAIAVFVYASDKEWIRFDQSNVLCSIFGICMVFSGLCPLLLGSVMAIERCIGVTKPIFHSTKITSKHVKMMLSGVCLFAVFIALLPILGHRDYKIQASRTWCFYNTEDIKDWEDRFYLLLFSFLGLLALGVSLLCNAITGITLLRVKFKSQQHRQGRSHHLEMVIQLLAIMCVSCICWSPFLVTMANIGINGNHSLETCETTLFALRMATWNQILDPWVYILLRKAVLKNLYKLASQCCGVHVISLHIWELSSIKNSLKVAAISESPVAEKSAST

## CCCCc1nn(-c2ccccc2C(F)(F)F)c(=O)n1Cc1ccc(-c2ccccc2S(=O)(=O)NC(=O)c2sccc2C)cc1 [L-161, 982, N-[[4′-[[3-Butyl-1,5-dihydro-5-oxo-1-[2-(trifluoromethyl)phenyl]-4H-1,2,4-triazol-4-yl]methyl][1,1′-biphenyl]-2-yl]sulfonyl]-3-methyl-2-thiophenecarboxamide]
Mouse primary myoblasts
  proliferation of mouse primary myoblasts: inhibit proliferation
S. aureus
  effect of thiourea on growth inhibition: did not alleviate
FP
  Ki: 5.6 µM
S. aureus NRS383; 24 h post inoculation, vs untreated
  reduction of S. aureus in peritoneal cavity and spleen: 3 logs
S. aureus NRS383; 48 h post infection, after a second dose
  additional reduction of S. aureus in peritoneal cavity and spleen: 3 log
S. aureus NRS383; inoculum 2×10^7 CFU
  mortality by day 2 at high inoculum: could not be reversed
S. aureus NRS383; inoculum 4×10^6 CFU, control 40
  survival by day 2 post-inoculation: 85%
S. aureus NRS383; inoculum 5×10^6 CFU, control 25
  survival by day 2 post-inoculation: 55%
S. aureus NRS383; intermediate and lowest inocula, continued dosing, control 20% survival
  survival through day 10: sustained survival
S. aureus NRS383; one treatment, depending on infectious dose
  survival rate raised by: at least 50%
[1]
  survival enhanced by: 40%
[1]; vehicle control 10
  survival: 50%
